Reference: PMC4332636, “In Vitro and In Vivo Toxicity Profiling of Ammonium-Based Deep Eutectic Solvents” (PLoS ONE, 2015)
Converted amounts (≈) assume the structure as drawn. Read-outs that look alike come from different tables or passages of the source.

Legend:
[1] = set-up: method as in PMID 18512987, PMID 19661306; conditions: previously reported; cited from earlier work
[2] = system: ICR mice; test: Acute toxicity (LD50) in ICR mice; type: in vivo; conditions: mortality within 14 days
Protocol: (§1) The acute toxicity of the compounds was evaluated using six Imprinting Control Region (ICR) mice per groups at 8 to 12 weeks of age, with an average body weight of 25.6 g. The animals were assigned equally into 4 groups labeled as vehicle (dH2O), high dose (20 g/kg), medium dose (10 g/kg) and low dose (5 g/kg) of the compounds. Prior to administration, the animals were fasted (food but not water) overnight and for 3 to 4 h after compounds administration to eliminate any food inside the gastrointestinal tract that might complicate absorption of the test substance. […] Animals were euthanized by CO2 asphyxiation on 15th day, and serum biochemical and histological (liver and kidney) parameters were determined following the standard method. The mortality of the mice were recorded within 14 days and used to calculate the LD50 for each compound. The mice used were housed in specific pathogen free facility at the University of Malaya. This work was designed to minimize animal suffering and number of animals used, and has been approved by the Faculty of Medicine Animal Care and Use Committee (FOMIACUC, Approval No: 2014-05-07/PHAR/R/CYL) at University of Malaya. The work was reported according to ARRIVE guideline.

[3] = Acute toxicity (LD50) in ICR mice; type: in vivo; conditions: mouse, in vivo, oral, mortality within 14 days
Protocol: as §1

[4] = ORAC antioxidant activity assay
Protocol: Chemicals. Fluorescein sodium salt, AAPH (2,2′-Azobis(2-methylpropionamidine) dihydrochloride), quercetin dehydrate and trolox ((±)-6-Hydroxy-2,5,7,8-tetramethylchromane-2-carboxylic acid) were purchased from Sigma-Aldrich.
ORAC assay. ORAC (oxygen radical […]) assay was done based on procedures described previously with slight modifications. Compounds were diluted to a final concentration of 100μg/mL, with total reaction volume of 200μL. The assay was performed in a 96-well black microplate, with 25μL of samples, standard (trolox), blank (solvent/PBS) or positive control (quercetin). Subsequently, 150μL of working fluorescein solution was added to each well of assay plate. The plate was incubated at 37°C for at least 5 min. 25μL of AAPH working solution was then added to the wells, making up a total volume of 200μL. Fluorescence was recorded with excitation wavelength of 485nm and emission wavelength of 538nm. […] The values were expressed as trolox equivalent (TE).

[5] = system: human malignant melanoma cell line (A375); test: MTT cell viability assay, A375; type: cell-based
Source text: (§2) Human prostate cancer cell line (PC3), human malignant melanoma cell line (A375), human liver hepatocellular cell line (HepG2) and human colon adenocarcinoma cell line (HT29) were purchased from American Type Culture Collection (ATCC, Manassas, VA). The human breast cancer cell line (MCF-7) was acquired from Cell Lines Service (300273; Eppelheim, Germany), human oral keratinocyte cell line (OKF6) cells and carcinoma-derived human oral keratinocyte cells (H413) (Sigma-aldrich, Saint Louis, MO) were received from Professor Ian Charles Paterson. MCF-7, A375, HT29 and HepG2 cells were grown in Dulbecco’s Modified Eagle Medium (DMEM, Life Technologies, Inc., Rockville, MD) supplemented with 10% heat-inactivated fetal bovine serum (FBS, Sigma-Aldrich, St. Louis, MO), 1% penicillin and streptomycin. PC3 cells were grown in Roswell Park Memorial Institute medium (RPMI) supplemented with 10% heat-inactivated fetal bovine serum (FBS, Sigma-Aldrich, St. Louis, MO), 1% penicillin and streptomycin. OKF6 cells were grown in Keratinocyte Serum-Free Medium (KSFM), supplemented with 10% heat-inactivated fetal bovine serum (FBS, Sigma-Aldrich, St. Louis, MO), 1% penicillin and streptomycin. H413 cells were grown in Dulbecco's Modified Eagle Medium/Ham's F-12 (DMEM/F12) supplemented with 10% heat-inactivated fetal bovine serum (FBS, Sigma-Aldrich, St. Louis, MO), 1% penicillin and streptomycin. Cells were cultured in tissue culture flasks (Corning, USA) and were kept in an incubator at 37°C in a humidified atmosphere with 5% CO2. For experimental purposes, cells in exponential growth phase (approximately 70–80% confluency) were used.
(§3) The influence of the solvents was determined by MTT assay (Mosmann, 1983). MCF-7, A375, HT29, HepG2, PC3, OKF6 and H413 cells were treated for 48 h. On the first day, 1.0 × 10^4 cells were seeded into a 96-well plate for 24 h incubation assay. The cells were incubated overnight at 37°C in 5% CO2. On the next day, the cells were treated with a two-fold dilution series of six concentrations of the solvents, and then incubated at 37°C in 5% CO2 for 48 h. MTT solution (4,5-dimethylthiazol-2-yl-2,5-diphenyltetrazoliumbromide) was added at 2 mg/mL, and after 2 h of incubation at 37°C in 5% CO2, DMSO was added to dissolve the formazan crystals. The plates were then read in Chameleon multitechnology microplate reader (Hidex, Turku, Finland) at 570 nm absorbance. The cell viability percentage after exposure to the solvents for 48 h was calculated by the previously described method. The ratio of the absorbance of treated cells to the absorbance of DMSO-treated control cells was determined as cell viability (percentage).

[6] = system: human liver hepatocellular cell line (HepG2); test: MTT cell viability assay, HepG2; type: cell-based; conditions: HepG2, 48 h treatment
Source text: as §2, §3

[7] = system: carcinoma-derived human oral keratinocyte cells (H413); test: MTT cell viability assay, H413; type: cell-based; conditions: H413, 48 h treatment
Source text: as §2, §3

[8] = system: human breast cancer cell line (MCF-7); test: MTT cell viability assay, MCF-7; type: cell-based
Source text: as §2, §3

[9] = system: human oral keratinocyte cell line (OKF6); test: MTT cell viability assay, OKF6; type: cell-based; conditions: OKF6, 48 h treatment
Source text: as §2, §3

[10] = system: human colon adenocarcinoma cell line (HT29); test: MTT cell viability assay, HT29; type: cell-based
Source text: as §2, §3

[11] = system: human prostate cancer cell line (PC3); test: MTT cell viability assay, PC3; type: cell-based; conditions: PC3, 48 h treatment
Source text: as §2, §3

[12] = system: HepG2; conditions: on HepG2; cited from earlier work

Molecule | IC50 ([5]; A375, 48 h treatment) [µg/mL] | IC50 [6] [µg/mL] | IC50 [7] [µg/mL] | IC50 ([8]; MCF-7, 48 h treatment) [µg/mL] | IC50 [9] [µg/mL] | IC50 ([10]; HT29, 48 h treatment) [µg/mL] | IC50 [11] [µg/mL] | other results
4-Hydroxy tamoxifen | – | – | – | – | – | – | – | selectivity index [1]: less than 2
OCCO [Pure EG, ethylene glycol] | – | – | – | – | – | – | – | LD50 [2]: 9710 ± 1950 mg/kg
OCC(O)CO [Pure Gl, glycerine] | – | – | – | – | – | – | – | LD50 at 14 days [3]: 20600 ± 2160 mg/kg
OCCOCCOCCO [Pure TEG, triethylene glycol] | – | – | – | – | – | – | – | LD50 at 14 days [3]: 17000 ± 2040 mg/kg
NC(N)=O [Pure U, urea] | – | – | – | – | – | – | – | LD50 [2]: >20000 mg/kg
O=c1c(O)c(-c2ccc(O)c(O)c2)oc2cc(O)cc(O)c12 [Quercetin, quercetin dehydrate] | – | – | – | – | – | – | – | net AUC ([4]; compounds at 100μg/mL): 6353346; mM of Trolox per 100μg/mL ([4]; trolox equivalent): 0.02141 mM of Trolox per 100μg/mL; μM of Trolox per 100μg/mL ([4]; trolox equivalent): 21.411 μM of Trolox per 100μg/mL
C[N+](C)(C)CCO.[Cl-] [Solvent 2, choline chloride] | 7.584 ± 2.31 | 14.26 ± 1.43 | 19.61 ± 4.19 | 8.95 ± 0.98 | 26.53 ± 1.97 | 13.41 ± 1.73 | 11.94 ± 1.35 | –
OCC(O)CO [Solvent 3, glycerine] | 67.65 ± 6.83 (≈ 735 µM) | 68.85 ± 11.74 (≈ 748 µM) | 101.02 ± 18.54 (≈ 1100 µM) | 74.73 ± 6.67 (≈ 811 µM) | 129.31 ± 8.23 (≈ 1400 µM) | 63.80 ± 7.23 (≈ 693 µM) | 42.38 ± 3.96 (≈ 460 µM) | –
C[N+](C)(C)CCO.[Cl-] [Solvent 6, choline chloride] | 8.64 ± 1.75 | 12.69 ± 1.63 | 21.84 ± 2.65 | 13.05 ± 2.09 | 24.58 ± 2.81 | 11.79 ± 0.43 | 13.60 ± 2.94 | –
OCCO [Solvent 7, ethylene glycol] | 40.59 ± 5.27 (≈ 654 µM) | 44.33 ± 5.86 (≈ 714 µM) | 62.29 ± 8.94 (≈ 1000 µM) | 53.91 ± 6.17 (≈ 869 µM) | 75.62 ± 6.33 (≈ 1220 µM) | 43.72 ± 3.97 (≈ 704 µM) | 32.48 ± 1.06 (≈ 523 µM) | –
C[N+](C)(C)CCO.[Cl-] [Solvent 10, choline chloride] | 10.54 ± 0.34 | 25.99 ± 1.85 | 38.41 ± 4.03 | 12.51 ± 0.71 | 32.49 ± 3.41 | 18.75 ± 1.65 | 28.88 ± 2.64 | –
NC(N)=O [Solvent 11, urea] | 11.21 ± 1.38 (≈ 187 µM) | 24.23 ± 4.02 (≈ 403 µM) | 20.22 ± 1.69 (≈ 337 µM) | – | 28.22 ± 1.05 (≈ 470 µM) | 13.93 ± 2.16 (≈ 232 µM) | 23.09 ± 5.22 (≈ 384 µM) | –
C[N+](C)(C)CCO.[Cl-] [Solvent 14, choline chloride] | 12.75 ± 1.23 | 14.60 ± 2.53 | 21.49 ± 0.57 | 12.23 ± 0.39 | 21.74 ± 1.04 | 8.939 ± 1.43 | 10.18 ± 0.95 | –
OCCOCCOCCO [Solvent 15, triethylene glycol] | – | – | – | – | – | – | – | IC50 ([5]; Homo sapiens, A-375, A375, 48 h treatment, read-out: IC50): 14.6 ± 0.64 µg/mL (≈ 97.4 µM); IC50 ([6]; Homo sapiens, read-out: IC50): 33.9 ± 4.94 µg/mL (≈ 226 µM); IC50 ([7]; Homo sapiens, Keratinocyte, read-out: IC50): 32.1 ± 3.1 µg/mL (≈ 214 µM); IC50 ([8]; Homo sapiens, MCF7, MCF-7, 48 h treatment, read-out: IC50): 18.3 ± 2.15 µg/mL (≈ 122 µM); IC50 ([9]; Homo sapiens, read-out: IC50): 29.8 ± 1.45 µg/mL (≈ 198 µM); IC50 ([10]; Homo sapiens, HT-29, HT29, 48 h treatment, read-out: IC50): 20.2 ± 2.75 µg/mL (≈ 135 µM); IC50 ([11]; Homo sapiens, read-out: IC50): 23.1 ± 1.32 µg/mL (≈ 154 µM)
CCCCCCCCCC[N+](C)(C)CCCCCCCCCC [[DDA][Sac], didecyldimethylammonium saccharinate] | – | – | – | – | – | – | – | IC50 [12]: 4.8 µM
C[C@@]12CCC[C@]3(C)c4cc5c(O)ccc(O)c5cc4C(=O)[C@](O)(OC1)[C@H]23 [alisiaquinol] | – | – | – | – | – | – | – | selectivity index [1]: less than 2
CC/C(=C(/CCN1CCCCC1)c1ccc(O)cc1)c1ccc(O)cc1 [piperidinyl-diethylstilbestrol] | – | – | – | – | – | – | – | selectivity index [1]: less than 2
